The experiment has as its system EMC virus/L929 (IFN) test model. Kind of experiment: Cytoprotective effect / IFN values in the EMC virus/L929 (IFN) test model. In kind it is cell-based, murine. The following applies: determined from 8 standard curves. The method, then:
Determining the Cytoprotective Effect by Obtaining the Values for IFN in the EMC Virus/L929 (IFN) Test Model
L929 (IFN) cells (batch no. 5577) were cultured, trypsinized, washed and counted in 100-mL culture dishes. The suspension was adjusted to 2×10^5 cells/mL and sown in microtitre plates with 2×10^4 cells/well, which were incubated over night at 37° C., 5% CO2. After that, the supernatant was replaced by 100 μL each medium control, cell control, virus control with rMuIFN-γ control, rMuIFN-γ standard (100 U/mL) and test solution, all of which were diluted lineally.
The samples were incubated for exactly eight hours at 37° C., 5% CO2. After the end of the incubation time, 100 μL each of the vital suspension used were pipetted into the vital and interferon controls and into the test solutions and again incubated over night at 37° C., 5% CO2.
After 22 hours, fully developed viral activity appeared (cell lysis must be distinctly pronounced in the vital control), so that the lysis was interrupted. The supernatants were discarded via the wash basin 100 μl of a 0.5% crystal violet solution were pipetted into each well. […] The absorption of the crystal violet staining was determined on the ELISA reader at 550 nm. […] The ED50 value of the rMuIFN-γ standard was at 1,076 U/mL (determined from 8 standard curves).

As for “rMuIFN-γ standard: rMuIFN-γ standard (100 U/mL) used in the EMC virus/L929 (IFN) test”, the “ED50 value of the rMuIFN-γ standard” value is reported as 1,076 U/mL.

These data come from patent publication US20100047373A9, “Method for Extracting Plants of the Genus Pelargonium, Extract Produced According to Said Method, and Use Thereof” (EMSPHARM GMBH, priority 2005, published 2010).
